Measurements taken from publication PMC8509676, “Residual Helicity at the Active Site of the Histidine Phosphocarrier, HPr, Modulates Binding Affinity to Its Natural Partners” (International Journal of Molecular Sciences, 2021).
Like-named read-outs stand apart in the source and are kept apart here.

T1: Regulator of sigma D from Escherichia coli (Rsd^ec) (E. coli, UniProt P0AFX4 1-158)
T1 construct: Rsd (regulator of sigma D), anti-sigma factor of sigma 70, E. coli; 158-residue-long protein; called 'intact Rsd' in the abstract and 'wild-type Rsd vector' in the methods; Vector was a gift from Ann Hochschild; source: E. coli C41, purified as described [24,50]
T1 sequence (looked up): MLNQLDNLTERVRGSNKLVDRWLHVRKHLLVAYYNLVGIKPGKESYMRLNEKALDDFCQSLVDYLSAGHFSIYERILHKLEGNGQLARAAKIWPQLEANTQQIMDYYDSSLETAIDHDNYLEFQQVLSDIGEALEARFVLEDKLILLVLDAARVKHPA

T2: N-terminal domain of EI from Streptomyces coelicolor (EIN^sc) (Streptomyces coelicolor)
T2 chain: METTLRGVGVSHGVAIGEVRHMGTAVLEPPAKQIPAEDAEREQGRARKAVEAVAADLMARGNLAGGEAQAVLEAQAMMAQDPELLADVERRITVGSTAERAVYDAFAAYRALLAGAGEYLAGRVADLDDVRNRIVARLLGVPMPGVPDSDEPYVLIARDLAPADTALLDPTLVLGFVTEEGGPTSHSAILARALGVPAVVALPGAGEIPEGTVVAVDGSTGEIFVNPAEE


Legend:
[1] = TFE titration followed by far-UV CD (disordered-helical two-state equilibrium); assay type: physicochemical; conditions: for [TFE]1/2 / m: TFE titration by far-UV CD, 20 µM peptide, two-state fit, fitting errors; for percentage of helical population (in parentheses): from ∆G^water assuming a two-state conformational equilibrium; for ∆G^water: product of m- and [TFE]1/2 values, error propagation
Method: For experiments in the presence of TFE, the same set of experimental parameters was used. Cosolvent concentrations were indicated in percentage of volume (%). […] The peptide concentration for these experiments was 20 µM.

Rsd^ec = target: T3, Rsd^ec (Escherichia coli, UniProt P0AFX4); assay: Isothermal titration calorimetry (ITC), peptide/Rsd^ec binding; conditions: ITC, 25 °C; for ΔH, Rsd^ec: 50 mM Tris pH 7.0
T3 construct: His-tag; made in house; host or cells: E. coli C41
Method: (§1) The experimental set-up and data processing of ITC experiments has been described previously. Rsd^ec or EIN^sc (at 10–20 µM) were injected into the cell, and the peptides in the syringe (100–200 µM) in 50 mM of Tris buffer, pH 7.0. The temperature for all the experiments was 25 °C. Typically, each calorimetric titration consisted of performing 19 injections with 2 μL volume, with a time spacing of 150 s, while stirring at 750 rpm in an Auto-iTC200 high-sensitivity microcalorimeter (MicroCal, Malvern-Panalytical, Malvern, UK). The results were analysed by applying a model that considered a single binding site (assuming a 1:1 stoichiometry) for the peptide/EIN^sc or peptide/Rsd^ec interaction using a nonlinear least-squares regression analysis in Origin 7.0 (OriginLab, Northampton, MA, USA) with user-defined fitting routines.

[2] = Translational diffusion NMR (DOSY); assay type: physicochemical; conditions: for D (translational diffusion coefficient): DOSY, 10 °C, 100% D2O, 70-120 µM peptide, fitting errors, repeated twice; for Rh (in parentheses, from DOSY): from comparison with the Rh of dioxane (2.12 Å)
Method: (b) Translational diffusion NMR (DOSY): Peptide concentrations were the same as those used in the 1D-^1H-NMR spectra. Translational self-diffusion measurements were performed with the pulsed-gradient spin-echo sequence in the presence of 100% D2O. The following relationship existed between the translational self-diffusion coefficient, D, and the delays used during experiment acquisition:(2) I/I0=−exp(DγH2δ^2G^2(Δ−δ/3−τ/2)) where I is the peak intensity of a particular resonance (or a group of them) at any gradient strength; I0 is the maximum peak intensity of the same resonance(s) at the smallest gradient strength (that is, at 2% of the total power of the gradient coil); D is the translational self-diffusion constant (in cm^2 s^−1); δ is the duration (in s) of the gradient; G is the gradient strength (in T cm^−1); ∆ is the time (in s) between the gradients; γH is the gyromagnetic constant of the proton (in rad s^−1 T^−1); and τ is the recovery delay between the bipolar gradients (100 µs in our experiments). The gradient strength (G) was varied in 16 lineal steps, between 2 and 95% of the total power of the gradient coil of the probe. The gradient strength was calibrated by using the value of D for the residual proton water line in a sample containing 100% D2O placed in a 5 mm tube [42]. Data were plotted as I/I0 versus G^2, and the exponential factor of the curve was:(3) DγH2δ^2(Δ−δ/3−τ/2) from which D can be obtained. The duration of the gradient (δ) was 2.25 ms, and the time between the two gradients (∆) was set to 200 ms. The signal from the methyl groups between 1.1 and 0.70 ppm were used for integration of the intensity. A final concentration of 1% of dioxane was added to each peptide; the hydrodynamic radius, Rh, of each peptide was obtained for comparison by assuming that the Rh of dioxane was 2.12 Å [42]. The DOSY experiment was repeated twice with fresh samples for each peptide.

EIN^sc = EIN^sc (Streptomyces coelicolor, UniProt Q9KZP1); assay: biochemical; assay type: binding
Method: Spectra were collected at 25 °C on a Cary spectrofluorometer (Agilent, Madrid, Spain), with a Peltier temperature controller. The samples were prepared the day before and left overnight at 5 °C. Before measurements, the samples were incubated for 1 h at 25 °C. A quartz cell with a 1 cm path length (Hellma, Kruibeke, Belgium) was used. In all the experiments, the slit widths were equal to 5 nm for both the excitation and emission lights. Protein samples were excited at either 280 or 295 nm. The experiments were performed between 300 and 400 nm. The signal was acquired for 1 s, and the increment of wavelength was set to 1 nm. Appropriate blank corrections were made in all spectra. For the binding experiments, 3 µM of either protein (Rsd^ec or EIN^sc) and 15 µM of the corresponding peptide were mixed. The experiments in aqueous solution were acquired in Tris buffer (50 mM, pH 7.0).
For the titration between either of the two proteins (Rsd^ec or EIN^sc) and the corresponding peptide, increasing amounts of the latter, in a concentration range of 0 to 30 µM, were added to a solution with a fixed concentration of each protein (3 µM). The experimental set-up was identical to that described above, including preparation of the samples the day before and their storage overnight at 5 °C. Before measurements, the samples were incubated for 1 h at 25 °C. The fluorescence of a blank solution containing only the corresponding peptide was subtracted for each data point. […] The Kd was determined by following the fluorescence at selected wavelengths and fitting experimental data to Equation (1). […] At all used concentrations, the fluorescence was corrected by the inner-filter effects.

[3] = system: Staphylococcus aureus CECT59; assay type: cell-based
Method: The CECT59 strain of the Gram-positive bacteria Staphylococcus aureus from the Spanish Type Culture Collection (Colección Española de Cultivos Tipo, CECT, Universitat de Valencia, Spain) was used for determining its sensitivity to the HPr peptides studied in this work. The MIC for each peptide was determined by the two-fold broth microdilution method according to the Clinical and Laboratory Standards Institute (CLSI) guidelines, with some modifications as previously described. For this testing procedure, a bacteria colony previously grown in MH agar plates was isolated and incubated in MH broth at 37 °C overnight to prepare the bacteria inoculum to be used in each assay. Then, the bacteria suspensions were adjusted to a 100× dilution of an 0.5 McFarland turbidity standard in MH broth and incubated with different concentrations of each peptide in round-bottom 96-well polystyrene plates (Deltalab S.L., Rubí, Spain) (50 μL/well) for 24 h at 37 °C. The peptide concentrations employed comprised two-fold dilutions starting at either 120, 160, or 400 µM, depending on the experiment. […] All assays were performed in triplicate.

[4] = target: EIN^sc (N-terminal domain of EI^sc) (Streptomyces coelicolor, UniProt Q9KZP1); assay: biochemical; assay type: binding
Method: as §1

[5] = Far-UV CD, helicity from molar ellipticity at 222 nm; assay type: physicochemical; conditions: 5 °C; for [Θ]^222 (value in parentheses): 50 mM Tris pH 7.0; for Helicity (%): 50 mM Tris pH 7.0, from [Θ]^222 assuming −39,500 deg cm^2 dmol^−1 for a fully formed α-helix
Method: Spectra were collected on a Jasco J810 spectropolarimeter (Jasco, Tokyo, Japan) interfaced with a Peltier unit. Far-UV measurements were performed with samples placed in quartz cells with a 0.1 cm path length (Hellma, Kruibeke, Belgium), with a response time of 2 s, a band width of 1 nm, and a scan velocity of 50 nm/min. For all peptides, a wide range of concentrations (10–50 µM) was used to determine whether either the shape or the intensity of the spectra was concentration-dependent. None of those features changed in the concentration range explored. The experiments in aqueous solution were acquired at 5 °C in Tris buffer (50 mM, pH 7.0). Raw ellipticity was converted to molar ellipticity, [Θ], from which the fraction of helical populations was determined as previously described. For the experiments in the presence of each protein (repeated three times), the same concentration used in the fluorescence experiments was used, and the experimental set-up was the same as described above for the isolated peptides.

[6] = target: T1, Regulator of sigma D from Escherichia …; assay: ITC; Rsd^ec or EIN^sc (10–20 µM) in the cell, peptide (100–200 µM) in the syringe; 50 mM Tris, pH 7.0, 25 °C; single binding-site model, 1:1 stoichiometry assumed; conditions: both partners purified
[7] = target: T2, N-terminal domain of EI from …; assay: as above; conditions: both partners purified
[8] = target: T2, N-terminal domain of EI from …; assay: other fluorescence titration; peptide 0–30 µM added to 3 µM Rsd^ec or EIN^sc; 50 mM Tris, pH 7.0, 25 °C; samples left overnight at 5 °C; blank of peptide subtracted; conditions: both partners purified
[9] = S. aureus CECT59, two-fold broth microdilution (CLSI), MH broth, 24 h, 37 °C, triplicate (sd = 0), highest concentration tested 400 µM

Molecule | [TFE]1/2 [1] | m [1] | percentage of helical population (in parentheses) [1] | ∆G^water [1] | ΔH, Rsd^ec (Rsd^ec) | D (translational diffusion coefficient) [2] | Rh (in parentheses, from DOSY) [2] | Kd (EIN^sc) | MIC [3, 9] | Kd [4] | ΔH, EIN^sc ([4]; ITC, 25 °C, 50 mM Tris pH 7.0) | [Θ]^222 (value in parentheses) [5] | Helicity (%) [5] | Kd (Rsd^ec; 50 mM Tris pH 7.0, single binding-site model, read-out: Kd, Rsd^ec (ITC)) | MIC ([3]; CECT59, 24 h) | Kd [6] | dH [6] | Kd [7] | dH [7] | Kd [8]
Ac-GWAEGLHARPASIFARAATATG-NH2 [Peptide V23A] | 22.7 ± 0.3 % (v/v) | 217 ± 23 cal/mol (% (v/v)) | 0.01% | 4.9 ± 0.5 kcal/mol | -0.8 ± 0.5 kcal/mol | 2.0 ± 0.1 cm^2 s^−1 × 10^6 | 11 ± 1 Å | 9 µM | > 400 µM | 9.1 ± 0.9 µM | -6.6 ± 0.5 kcal/mol | −988.51 deg cm^2 dmol^−1 | 2.5% | – | – | – | – | – | – | –
Ac-GWAEGLHARAASAFARAATATG-NH2 [P18A/I21A/V23A] | 19.0 ± 0.9 % (v/v) | 184 ± 32 cal/mol (% (v/v)) | 0.17% | 3.5 ± 0.6 kcal/mol | 0.6 ± 0.4 kcal/mol | 2.5 ± 0.4 cm^2 s^−1 × 10^6 | 9 ± 2 Å | – | – | – | – | −2698.61 deg cm^2 dmol^−1 | 6.8% | 2.6 ± 0.4 µM | 60 µM | – | – | – | – | –
Ac-GWAEGLHARPASIAVRAATATG-NH2 [Peptide F22A] | 22 ± 1 % (v/v) | 134 ± 27 cal/mol (% (v/v)) | 0.5% | 2.9 ± 0.6 kcal/mol | 1.1 ± 0.5 kcal/mol | 1.83 ± 0.03 cm^2 s^−1 × 10^6 | 11 ± 1 Å | – | 400 µM | – | – | −84.95 deg cm^2 dmol^−1 | 0.2% | – | – | – | – | – | – | –
Ac-GWAEGLHARAASIFVRAATATG-NH2 [Peptide P18A] | 19.8 ± 0.4 % (v/v) | 181 ± 17 cal/mol (% (v/v)) | 0.15% | 3.6 ± 0.3 kcal/mol | 1.1 ± 0.4 kcal/mol | 2.0 ± 0.1 cm^2 s^−1 × 10^6 | 11 ± 1 Å | – | 120 µM | – | – | −1135.47 deg cm^2 dmol^−1 | 2.9% | – | – | – | – | – | – | –
Ac-GWAEGLHARPASIFVRAATATG-NH2 (HPr (histidine phosphocarrier) of Streptomyces coelicolor, HPr^sc, residues 9-30; first letter printed as G^9; The limit residues are printed as Gly9-Ala30 (abstract) and Ala9-Gly30 (introduction); source: synthetic peptide, bought: NZYTech (purity >95%)) [HPr^9–30 wild-type peptide (residues 9-30 of HPr from Streptomyces coelicolor)] | – | – | – | – | – | – | – | – | – | – | – | – | – | – | – | 1.4 ± 0.3 µM | 1.3 ± 0.4 kcal/mol | 2.3 ± 0.4 µM | -0.8 ± 0.4 kcal/mol | 10 µM
Ac-GWAEGLHARPASIFARAATATG-NH2 (HPr of Streptomyces coelicolor, residues 9-30, with V23A; source: synthetic peptide, bought: NZYTech (purity >95%)) [HPr^9–30 V23A peptide] | – | – | – | – | – | – | – | – | – | – | – | – | – | – | – | 8.3 ± 0.9 µM | -0.8 ± 0.5 kcal/mol | 9.1 ± 0.9 µM | -6.6 ± 0.5 kcal/mol | 9 µM
Ac-GWAEGLHARAASAAARAATATG-NH2 (HPr of Streptomyces coelicolor, residues 9-30, with P18A, I21A, F22A and V23A; also called quadruple-mutant; source: synthetic peptide, bought: NZYTech (purity >95%)) [HPr^9–30 P18A/I21A/F22A/V23A peptide] | – | – | – | – | – | – | – | – | – | – | – | – | – | – | – | – | 4.3 ± 0.5 kcal/mol | 1.1 ± 0.2 µM | 0.2 ± 0.4 kcal/mol | 11 µM
